Data: article PMC11721817 (Toxicology Reports, 2024)

What was measured:
Wistar rats [1] = assay: Superoxide dismutase activity in organ homogenates; type: in vivo, rat
[2] = test system: HCT-116 (human colorectal cancer cells); assay: MTT cytotoxicity assay, HCT-116; type: cell-based; conditions: for cell viability: HCT-116, 10 μM and 25 μM; for IC50: Homo sapiens, HCT-116, 24 h
Wistar rats [3] = assay: Lipid peroxidation assay; type: in vivo, rat; conditions: 1000 mg/kg, compared to control
Wistar rats [4] = assay: Histopathological examination of liver, kidney and spleen; type: in vivo, rat; conditions: for Liver sections, histopathology / Spleen sections, histopathology: H&E
Wistar rats [5] = assay: Acute oral toxicity study; conditions: for change in body weight / food consumed by animals (weight) / change in organ weight, Kidney / change in organ weight, Liver / change in organ weight, Spleen: mean ± S.E.M, n = 5; for body weight course: 7th and 14th day; for toxicity signs / tremors, change in eye and skin color / Mortality: oral; for Mortality: 2000 mg/kg
red blood cells (RBCs) = assay: Hemolysis assay; type: cell-based; conditions: rat blood, 10 μM, 25 μM, 50 μM, and 100 μM, compared to positive control
HCT-116 cells [6] = assay: Cell migration; type: cell-based, human; conditions: 24 h, control = 100 %
CT-26 cells [7] = assay: Cell migration; type: cell-based, murine; conditions: 24 h, control = 100 %
HCT-116 cells [8] = assay: DNA fragmentation, Hoechst staining, HCT-116; type: cell-based, human; conditions: HCT-116, 50 µM, 24 h
CT-26 cells [9] = assay: DNA fragmentation, Hoechst staining, CT-26; type: cell-based, murine; conditions: CT-26, 50 µM, 24 h
Wistar rats [10] = assay: Serum biochemistry after acute oral administration; conditions: n = 3; for Globulin: normal range 1.5–2.5, mean ± S.E.M; for A/G ratio: normal range 1.58–2.67, mean ± S.E.M; for Albumin: normal range 3.4–4.8, mean ± S.E.M; for Total protein: normal range 5.2–7.1, mean ± S.E.M; for SGPT (ALT): normal range 18–45, mean ± S.E.M; for ALP: normal range 62–230, mean ± S.E.M; for SGOT (AST): normal range 74–183, mean ± S.E.M; for Triglycerides: normal range 20–114, mean ± S.E.M
[11] = test system: CT-26 (murine colorectal cancer cells); assay: MTT cytotoxicity assay, CT-26; type: cell-based; conditions: Mus musculus, CT26, 24 h
[12] = 1000 mg/kg, compared with IG-01–007 and IG-01–008 at 300 mg/kg
[13] = 1000 mg/kg, compared with control and 1 % DMSO
[14] = 14th day, 1000 mg/kg, compared to control

## CC(C)(C)CC(C)(C)Nc1c(-c2ccc(-c3ccccc3)cc2)nc2cnccn12 [IG-01–008, 2-([1,1’-biphenyl]-4-yl)-N-(2,4,4-trimethylpentan-2-yl)imidazo[1,2-a]pyrazin-3-amine]
Wistar rats [1]; 300 mg/kg, compared with control and 1 % DMSO
  SOD level, spleen: significant decrease seen in SOD level
Wistar rats [1]; [12]
  SOD level, spleen: significant reduction of SOD level
Wistar rats [1]; 1000 mg/kg, compared with IG-01–007 at 300 mg/kg
  SOD levels, kidney: SOD levels were significantly decreased
Wistar rats [1]; [13]
  SOD level, spleen: significant decrease seen in SOD level
Wistar rats [1]; 1000 mg/kg, in comparison with 1 % DMSO
  SOD levels, kidney: SOD levels significantly decreased
[2]
  cell viability: no significant reduction in cell viability
  IC50: 30.9 ± 10.6 µM
[2]; HCT-116, 50 μM and 100 μM
  cytotoxicity: higher cytotoxicity compared to IG-01–007
Wistar rats [3]
  MDA levels, liver: significantly higher
Wistar rats [4]; 300 mg/kg
  Liver sections, histopathology: mild steatosis and presence of micro and macro vesicles
  Spleen sections, histopathology: ill-defined spleen section
Wistar rats [4]; 1000 mg/kg
  Liver sections, histopathology: moderate to severe fatty liver change with presence of sinusoidal spaces indicated by arrow and multi necrotic foci filled with mild hemorrhage
  Spleen sections, histopathology: disrupt white pulp
Wistar rats [4]; doses of ≥ 1000 mg/kg
  toxicity in liver tissues (abstract): hepatic damage and cholestasis
Wistar rats [5]; 0 day, 300 mg/kg
  change in body weight: 242 ± 5.1478 gm
  food consumed by animals (weight): 92.2 ± 0.374 gm
Wistar rats [5]; 0 day, 1000 mg/kg
  change in body weight: 249 ± 8.124 gm
  food consumed by animals (weight): 92.4 ± 1.166 gm
Wistar rats [5]; 300 mg/kg
  change in organ weight, Kidney: 2.058 ± 0.123 gm
  change in organ weight, Liver: 6.21 ± 0.15 gm
  change in organ weight, Spleen: 0.83 ± 0.0763 gm
Wistar rats [5]; 1000 mg/kg
  change in organ weight, Kidney: 1.954 ± 0.110 gm
  change in organ weight, Liver: 6.74 ± 0.332 gm
  change in organ weight, Spleen: 0.747 ± 0.1135 gm
  body weight course: gradual decrease in body weight
  toxicity signs: toxicity signs were seen
  tremors, change in eye and skin color: tremors, change in eye and skin color was observed
Wistar rats [5]; 7th day, 300 mg/kg and 1000 mg/kg, compared to control
  food consumption: significant decrease in food consumption
Wistar rats [5]; 7th day, 300 mg/kg
  change in body weight: 254 ± 6.595 gm
  food consumed by animals (weight): 86.2 ± 0.969 gm
Wistar rats [5]; 7th day, 1000 mg/kg
  change in body weight: 236 ± 8.124 gm
  food consumed by animals (weight): 83.2 ± 0.86 gm
Wistar rats [5]; 14th day, 300 mg/kg and 1000 mg/kg, compared to 1 % DMSO
  food intake: significant reduction in food intake
Wistar rats [5]; 14th day, 300 mg/kg, compared to control
  food intake: significant decrease in food intake
Wistar rats [5]; 14th day, 300 mg/kg
  change in body weight: 257 ± 6.04 gm
  food consumed by animals (weight): 81.2 ± 0.916 gm
Wistar rats [5]; [14]
  food intake: significant decrease in food intake
Wistar rats [5]; 14th day, 1000 mg/kg
  change in body weight: 225 ± 8.366 gm
  food consumed by animals (weight): 76 ± 1.702 gm
Wistar rats [5]; day 14th, 1000 mg/kg, compared to control
  body weight: significantly lowered
Wistar rats [5]
  Mortality: Mortality was observed
Red blood cells (RBCs)
  hemolytic activity: did not show any hemolytic activity
HCT-116 cells [6]; HCT-116, 25 μM
  % migration of cell: 36.33%
HCT-116 cells [6]; HCT-116, 50 μM
  % migration of cell: 20.76%
CT-26 cells [7]; CT-26, 25 μM
  migration percentages: 35.65%
CT-26 cells [7]; CT-26, 50 μM
  migration percentages: 39.17%
HCT-116 cells [8]
  DNA fragmentation: DNA fragmentation
CT-26 cells [9]
  DNA fragmentation: DNA fragmentation
Wistar rats [10]; 300 mg/kg
  Globulin: 4.30 ± 0.529 g/dL
  A/G ratio: 0.736 ± 0.0523
  Albumin: 3.166 ± 0.2905 g/dL
  Total protein: 7.266 ± 0.523 g/dL
  SGPT (ALT): 60.33 ± 3.756 U/L
  ALP: 391.33 ± 9.261 U/L
  SGOT (AST): 255 ± 5.291 U/L
Wistar rats [10]; 1000 mg/kg
  Globulin: 4.35 ± 0.144 g/dL
  A/G ratio: 0.923 ± 0.0648
  Albumin: 3.67 ± 0.2055 g/dL
  Total protein: 7.60 ± 0.3183 g/dL
  SGPT (ALT): 79.0 ± 1.732 U/L
  Triglycerides: 115.33 ± 5.487 mg%
  ALP: 501.66 ± 13.64 U/L
  SGOT (AST): 302.33 ± 4.096 U/L
[11]
  IC50: 48.1 ± 22.6 µM

## CC(C)(C)Nc1c(-c2ccc(-c3ccccc3)cc2)nc2ccccn12 [IG-01–007, 2-([1,1’-biphenyl]-4-yl)-N-(tert-butyl)imidazo[1,2-a]pyridine-3-amine]
Wistar rats [1]; [12]
  SOD level, spleen: significant reduction of SOD level
Wistar rats [1]; [13]
  SOD level, spleen: significant decrease seen in SOD level
[2]
  cell viability: no significant reduction in cell viability
  IC50: 30.1 ± 1.58 µM
Wistar rats [3]
  MDA levels, liver: significantly higher
Wistar rats [4]; 300 mg/kg
  Liver sections, histopathology: healthy with normal hepatocytes while some sections were found to have non-uniform cell structure
  Spleen sections, histopathology: diffuse white pulp and distorted lymphoid architecture
Wistar rats [4]; 1000 mg/kg
  Liver sections, histopathology: healthy with mild activation of kupffer cells indicated by circle and moderate steatosis
  Spleen sections, histopathology: diffuse white pulp and distorted lymphoid architecture
Wistar rats [5]; 0 day, 300 mg/kg
  change in body weight: 233 ± 2 gm
  food consumed by animals (weight): 93.8 ± 1.1575 gm
Wistar rats [5]; 0 day, 1000 mg/kg
  change in body weight: 244 ± 15.6844 gm
  food consumed by animals (weight): 94.8 ± 0.80 gm
Wistar rats [5]; 300 mg/kg
  change in organ weight, Kidney: 1.6568 ± 0.110 gm
  change in organ weight, Liver: 6.58 ± 0.535 gm
  change in organ weight, Spleen: 0.654 ± 0.075 gm
Wistar rats [5]; 1000 mg/kg
  change in organ weight, Kidney: 1.854 ± 0.1179 gm
  change in organ weight, Liver: 6.204 ± 0.2716 gm
  change in organ weight, Spleen: 0.716 ± 0.0508 gm
  body weight course: gradual decrease in body weight
  toxicity signs: toxicity signs were seen
  tremors, change in eye and skin color: tremors, change in eye and skin color was observed
Wistar rats [5]; 7th day, 300 mg/kg
  change in body weight: 248 ± 3.391 gm
  food consumed by animals (weight): 90.4 ± 1.288 gm
Wistar rats [5]; 7th day, 1000 mg/kg
  change in body weight: 238 ± 16.17 gm
  food consumed by animals (weight): 88.6 ± 1.363 gm
Wistar rats [5]; 14th day, 300 mg/kg
  change in body weight: 253 ± 8 gm
  food consumed by animals (weight): 89.2 ± 2.009 gm
Wistar rats [5]; [14]
  food intake: significant decrease in food intake
Wistar rats [5]; 14th day, 1000 mg/kg
  change in body weight: 231 ± 15.033 gm
  food consumed by animals (weight): 82.4 ± 1.939 gm
Wistar rats [5]
  Mortality: Mortality was observed
Red blood cells (RBCs)
  hemolytic activity: did not show any hemolytic activity
HCT-116 cells [6]; HCT-116, 25 μM
  % migration of cell: 41.75%
HCT-116 cells [6]; HCT-116, 50 μM
  % migration of cell: 35.07%
CT-26 cells [7]; CT-26, 25 μM
  migration percentages: 45.61%
CT-26 cells [7]; CT-26, 50 μM
  migration percentages: 30.62%
HCT-116 cells [8]
  DNA fragmentation: DNA fragmentation
CT-26 cells [9]
  DNA fragmentation: DNA fragmentation
Wistar rats [10]; 300 mg/kg
  Globulin: 3.80 ± 0.404 g/dL
  A/G ratio: 0.69 ± 0.0608
  Albumin: 3.33 ± 0.437 g/dL
  Total protein: 7.03 ± 0.491 g/dL
  SGPT (ALT): 47.66 ± 2.728 U/L
  ALP: 307.33 ± 7.218 U/L
  SGOT (AST): 193 ± 12.74 U/L
Wistar rats [10]; 1000 mg/kg
  Globulin: 4.006 ± 0.1034 g/dL
  A/G ratio: 0.6966 ± 0.0317
  Albumin: 3.683 ± 0.261 g/dL
  Total protein: 7.40 ± 0.324 g/dL
  SGPT (ALT): 75.33 ± 4.05 U/L
  Triglycerides: 115 ± 4.055 mg%
  ALP: 343.0 ± 10.785 U/L
  SGOT (AST): 242 ± 3.785 U/L
[11]
  IC50: 61.2 ± 21.2 µM
